Assay results as given in US20220033363A1, “HERBICIDALLY ACTIVE SUBSTITUTED PHENYLPYRIMIDINE HYDRAZIDES” (Bayer Aktiengesellschaft, priority 2018, published 2022).

Assays:
Assay type in all cases: in vivo
Poa annua [1] = assay: Herbicidal post-emergence action (Method A) against POAAN; details: 504 h, rated visually after about 3 weeks vs untreated controls; for pest or weed control at 320 g/ha: read-out: Post-emergence action at 320 g/ha against POANN; for pest or weed control at 1280 g/ha: read-out: Post-emergence action at 1280 g/ha against POANN
Experimental: (§1) Method A: Herbicidal Post-Emergence Action Seeds of mono- and dicotyledonous weed plants are placed in plastic pots in sandy loam soil (twin sowing with one species each of mono- or dicotyledonous weed plants per pot), covered with soil and cultivated in a greenhouse under controlled growth conditions. 2 to 3 weeks after sowing, the test plants are treated at the one-leaf stage. The compounds of the invention, formulated in the form of wettable powders (WP) or as emulsion concentrates (EC), are applied to the green parts of the plants as aqueous suspension or emulsion with addition of 0.5% additive at a water application rate equivalent to 600 liters per hectare. After the test plants have been kept in the greenhouse under optimum growth conditions for about 3 weeks, the activity of the preparations is rated visually in comparison to untreated controls. For example, 100% activity=the plants have died, 0% activity=like control plants.

Abutilon theophrast [2] = assay: Herbicidal pre-emergence action (Method B) against ABUTH; details: 1280 g/ha, scored visually after about 3 weeks vs untreated controls
From the text: (§2) Method B: Herbicidal Pre-Emergence Action Seeds of mono- and dicotyledonous weed plants are placed in plastic pots in sandy loam soil (doubly sown with one species each of mono- or dicotyledonous weed plants per pot) and covered with soil. The compounds of the invention, formulated in the form of wettable powders (WP) or as emulsion concentrates (EC), are then applied onto the surface of the covering soil as aqueous suspension or emulsion with addition of 0.5% additive at a water application rate equivalent to 600 liters per hectare. After the treatment, the pots are placed in a greenhouse and kept under good growth conditions for the trial plants. After about 3 weeks, the effect of the preparations is scored visually in comparison with untreated controls as percentages. For example, 100% action=the plants have died, 0% action=like control plants.

Echinochloa crus-galli [3] = assay: Herbicidal pre-emergence action (Method B) against ECHCG; details: 504 h, scored visually after about 3 weeks vs untreated controls
From the text: as §2

Lolium rigidum [4] = assay: Herbicidal pre-emergence action (Method B) against LOLRI; details: 504 h, scored visually after about 3 weeks vs untreated controls
From the text: as §2

Amaranthus retroflexus = assay: Herbicidal post-emergence action (Method A) against AMARE; details: rated visually after about 3 weeks vs untreated controls
Experimental: as §1

Lolium rigidum [5] = assay: Herbicidal post-emergence action (Method A) against LOLRI; details: rated visually after about 3 weeks vs untreated controls; for pest or weed control at 1280 g/ha: Lolium rigidum, post-emergence, 504 h
Experimental: as §1

Poa annua [6] = assay: Herbicidal pre-emergence action (Method B) against POAAN; details: 504 h, scored visually after about 3 weeks vs untreated controls
From the text: as §2

Echinochloa crus-galli [7] = assay: Herbicidal post-emergence action (Method A) against ECHCG; details: rated visually after about 3 weeks vs untreated controls; for pest or weed control at 1280 g/ha: Echinochloa crus-galli, post-emergence, 504 h
Experimental: as §1

Stellaria media [8] = assay: Herbicidal post-emergence action (Method A) against STEME; details: 504 h, rated visually after about 3 weeks vs untreated controls
Experimental: as §1

Matricaria inodora [9] = assay: Herbicidal post-emergence action (Method A) against MATIN; details: 1280 g/ha; rated visually after about 3 weeks vs untreated controls
Experimental: as §1

Stellaria media [10] = assay: Herbicidal pre-emergence action (Method B) against STEME; details: 504 h; for pest or weed control at 320 g/ha: dosage 320 g/ha; for pest or weed control at 1280 g/ha: dosage 1280 g/ha
From the text: as §2

Matricaria inodora [11] = assay: Herbicidal pre-emergence action (Method B) against MATIN; details: Tripleurospermum inodorum, 504 h, scored visually after about 3 weeks vs untreated controls
From the text: as §2

harmful plants [12] = assay: Herbicidal post-emergence action (Method A), summary statement; details: summary of tables A1-A11
Experimental: as §1

Abutilon theophrast [13] = assay: Herbicidal post-emergence action (Method A) against ABUTH; details: rated visually after about 3 weeks vs untreated controls
Experimental: as §1

harmful plants [14] = assay: Herbicidal pre-emergence action (Method B), summary statement; details: summary of tables B1-B12 (Method B)
From the text: as §2

Setaria viridis = assay: Herbicidal pre-emergence action (Method B) against SETVI; details: 1280 g/ha, scored visually after about 3 weeks vs untreated controls
From the text: as §2

Structure (SMILES)	pest or weed control at 320 g/ha (Poa annua [1]) [%]	pest or weed control at 1280 g/ha (Poa annua [1]) [%]	pest or weed control at 320 g/ha (Echinochloa crus-galli [3]) [%]	pest or weed control at 1280 g/ha (Echinochloa crus-galli [3]) [%]	pest or weed control at 320 g/ha (Lolium rigidum [4]) [%]	pest or weed control at 1280 g/ha (Lolium rigidum [4]) [%]	pest or weed control at 1280 g/ha (Lolium rigidum [5]) [%]	pest or weed control at 320 g/ha (Poa annua [6]) [%]	pest or weed control at 1280 g/ha (Poa annua [6]) [%]	pest or weed control at 1280 g/ha (Echinochloa crus-galli [7]) [%]	pest or weed control at 320 g/ha (Stellaria media [8]) [%]	pest or weed control at 1280 g/ha (Stellaria media [8]) [%]	Post-emergence action at 1280 g/ha against MATIN (Matricaria inodora [9]) [%]	pest or weed control at 320 g/ha (Stellaria media [10]) [%]	pest or weed control at 1280 g/ha (Stellaria media [10]) [%]	pest or weed control at 1280 g/ha (Matricaria inodora [11]) [%]	other results
O=C(NNC(=O)c1nc(C2CC2)ncc1-c1ccccc1Cl)c1ccccn1 [Example I-527, 5-(2-chlorophenyl)-2-cyclopropyl-N′-(pyridin-2-ylcarbonyl)pyrimidine-4-carbohydrazide]	100	100	90	100	90	100	100	100	100	90	100	100	90	100	100	–	Pre-emergence action against ABUTH (Abutilon theophrast [2]): 90%; Post-emergence action at 1280 g/ha against AMARE (Amaranthus retroflexus): 100%; Post-emergence action at 320 g/ha against LOLRI (Lolium rigidum [5]; 320 g/ha): 100%
O=CNNC(=O)c1nc(C2CC2)ncc1-c1ccccc1Cl [Example I-516, 5-(2-chlorophenyl)-2-cyclopropyl-N′-formylpyrimidine-4-carbohydrazide]	100	100	–	100	100	100	90	100	100	100	90	100	90	100	100	100	Post-emergence action at 320 g/ha against ECHCG (Echinochloa crus-galli [7]; 320 g/ha): 90%; herbicidal efficacy against harmful plants in the case of post-emergence treatment (harmful plants [12]): good herbicidal efficacy; Post-emergence action at 1280 g/ha against ABUTH (Abutilon theophrast [13]): 100%
NNC(=O)c1nc(C2CC2)ncc1-c1ccccc1Cl [Example I-497, 5-(2-chlorophenyl)-2-cyclopropylpyrimidine-4-carbohydrazide]	100	100	100	100	90	100	100	100	100	100	100	100	–	100	100	100	pest or weed control at 320 g/ha (Matricaria inodora [11]; 320 g/ha): 100%; herbicidal efficacy against harmful plants in pre-emergence treatment (harmful plants [14]): good herbicidal efficacy; Pre-emergence action against SETVI (Setaria viridis): 90%
